Measured values from patent US6844151B1, “Methods for production of arrays with modified oligonucleotide and polynucleotide compositions” (Oligos Etc. Inc., priority 1999, dated 2005).
[pOEt] = p-ethoxy (ethyl phosphotriester) internucleotide linkage

What was measured:
[1] = test system: Regular RNA 20-mer oligonucleotide SEQ ID NO:1; test: Tm of 20-mer duplexes, modified SEQ ID NO:2 strand bound to Regular RNA SEQ ID NO:1; format: binding; conditions: duplex with Regular RNA SEQ ID NO:1; 4 μM each; 50 mM NaCl, 10 mM PO4 buffer, pH 7.4
Experimental: (§1) The stability of duplexes having 2′-substituted nucleotides versus duplexes without such modification was tested by examining the Tm of these complexes. 4 μM each of 20-mer oligonucleotide (5′-ggt ggt tcc tcc tca gtc gg-3′; SEQ ID NO:1) and its complement (5′- ccg act gag aag gaa cca cc-3;SEQ ID NO:2) were bound in a solution of 50 mM NaCl, 10 mM PO4 buffer, pH 7.4. Each of the nucleotides of the oligonucleotide had the same 2′ group. Following binding, the melting temperature was determined as described. (See L. L. Cummins et al., Nucleic Acids Research 23:2019-2024 (1995).

[2] = test system: Regular DNA 20-mer oligonucleotide SEQ ID NO:1; test: Tm of 20-mer duplexes, modified SEQ ID NO:2 strand bound to Regular DNA SEQ ID NO:1; format: binding; conditions: duplex with Regular DNA SEQ ID NO:1; 4 μM each; 50 mM NaCl, 10 mM PO4 buffer, pH 7.4
Experimental: as §1

| Substance | Tm [1] [°C] | Tm [2] [°C] |
| --- | --- | --- |
| 2′-O-methyl: SEQ ID NO:2 20-mer, every nucleotide with 2′-O-methyl group (CCGACTGAGAAGGAACCACC; all 2'-O-methyl, backbone and T or U not given here) | 79 |  |
| Regular DNA: unmodified DNA 20-mer, SEQ ID NO:2 (5′-ccg act gag aag gaa cca cc-3′) (CCGACTGAGAAGGAACCACC; DNA, backbone not given here) [reference compound] | 66 |  |
| p-ethoxy 2′-O-methyl: SEQ ID NO:2 20-mer as p-ethoxy 2′-O-methyl (CCGACTGAGAAGGAACCACC; all 2'-O-methyl, all [pOEt], T or U not given here) | 71 |  |
| p-ethoxy DNA: SEQ ID NO:2 20-mer as p-ethoxy DNA (CCGACTGAGAAGGAACCACC; DNA, all [pOEt], methylation of C not given here) |  | 55 |
| p-ethoxy RNA: SEQ ID NO:2 20-mer as p-ethoxy RNA (CCGACTGAGAAGGAACCACC; RNA, all [pOEt], T or U not given here) | 56 |  |
